Test results: patent US20250313563A1, “GLYCOGEN SYNTHASE KINASE 3 INHIBITORS AND USES THEREOF” (The Broad Institute, Inc., priority 2022, published 2025)
Where two headings read alike, the source gives them in different places.

What was measured:
[1] = target: GSK3α (GST-full length GSK3α) (Homo sapiens (Human), UniProt P49840); test: GSK3α TR-FRET kinase assay; type: biochemical
Procedure, shortened: (§1)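 In this time-resolved FRET format, kinase reactions contained 200 nM biotinylated, S645-phosphorylated glycogen synthase 631-650 peptide and either isoform-specific ATP (2 μM GSK3b, 4 μM GSK3α) or 1 mM ATP. They were quenched with EDTA after 100 min at ambient temperature. Inhibition curves gave IC50 values.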

[2] = target: GSK3b (GST-full length GSK3b) (Homo sapiens (Human), UniProt P49841); test: GSK3b TR-FRET kinase assay; type: biochemical
Procedure, shortened: as §1

[3] = 1 nM GSK3α, 4 μM ATP, 30 minute preincubation, Table 16, read-out: GSK3-A TR-FRET BIOCHEMICAL (TR-FRET)
[4] = 1 nM GSK3b, 2 μM ATP, 30 minute preincubation, Table 16, read-out: GSK3-B TR-FRET BIOCHEMICAL (TR-FRET)
[5] = read-out: GSK3-A (TR-FRET 1 mM ATP), GMean, IC50, 1 mM ATP, geometric mean
[6] = read-out: GSK3-B (TR-FRET 1 mM ATP), GMean, IC50, 1 mM ATP, geometric mean
[7] = 1 nM GSK3α, 4 μM ATP, 30 minute preincubation, read-out: GSK3-A TR-FRET BIOCHEMICAL (TR-FRET), IC50
[8] = 1 nM GSK3b, 2 μM ATP, 30 minute preincubation, read-out: GSK3-B TR-FRET BIOCHEMICAL (TR-FRET), IC50
[9] = 1 nM GSK3α, 4 μM ATP, 30 minute preincubation, Table 16, read-out: GSK3-A TR-FRET BIOCHEMICAL (TR-FRET), IC50
[10] = 1 nM GSK3b, 2 μM ATP, 30 minute preincubation, Table 16, read-out: GSK3-B TR-FRET BIOCHEMICAL (TR-FRET), IC50

Sequence of GSK3α (GST-full length GSK3α) (P49840 whole entry, canonical isoform): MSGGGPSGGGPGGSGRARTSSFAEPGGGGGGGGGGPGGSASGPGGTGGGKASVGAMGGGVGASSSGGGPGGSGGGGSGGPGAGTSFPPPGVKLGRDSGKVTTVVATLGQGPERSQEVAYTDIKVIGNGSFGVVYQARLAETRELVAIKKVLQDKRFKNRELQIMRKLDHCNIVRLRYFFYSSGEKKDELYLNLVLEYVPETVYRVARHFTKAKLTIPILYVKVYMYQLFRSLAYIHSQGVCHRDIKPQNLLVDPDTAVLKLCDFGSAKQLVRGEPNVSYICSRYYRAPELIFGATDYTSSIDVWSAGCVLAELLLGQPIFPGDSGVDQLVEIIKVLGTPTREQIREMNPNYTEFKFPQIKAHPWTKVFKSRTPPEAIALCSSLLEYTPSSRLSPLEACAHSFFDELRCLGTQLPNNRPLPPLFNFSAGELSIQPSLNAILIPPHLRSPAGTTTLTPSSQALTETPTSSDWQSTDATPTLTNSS
Sequence of GSK3b (GST-full length GSK3b) (P49841 whole entry): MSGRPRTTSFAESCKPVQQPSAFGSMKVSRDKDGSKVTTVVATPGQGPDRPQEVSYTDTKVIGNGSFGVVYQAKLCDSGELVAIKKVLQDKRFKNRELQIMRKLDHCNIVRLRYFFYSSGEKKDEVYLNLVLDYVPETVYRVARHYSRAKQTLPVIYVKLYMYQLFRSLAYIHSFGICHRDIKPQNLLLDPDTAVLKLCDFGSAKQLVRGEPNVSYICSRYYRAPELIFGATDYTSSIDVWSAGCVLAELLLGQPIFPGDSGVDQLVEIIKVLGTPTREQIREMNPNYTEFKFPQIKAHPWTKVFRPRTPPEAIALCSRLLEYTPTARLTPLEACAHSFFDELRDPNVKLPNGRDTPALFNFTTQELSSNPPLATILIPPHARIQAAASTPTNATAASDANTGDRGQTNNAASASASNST

IC50 [1, 3] [nM] | IC50 [2, 4] [nM] | Structure (SMILES) | other results
≤ 100 | ≤ 100 | Cn1ccc(S(=O)(=O)N2CC[C@@]3(C2)C2=C(CC(C)(C)CC2=O)Nc2n[nH]cc23)n1 [Compound 945714] | –
≤ 100 | ≤ 100 | CC1(C)CC(=O)C2=C(C1)Nc1n[nH]cc1[C@@]21CCN(S(=O)(=O)c2ccccc2F)C1 [Compound 945719] | –
≤ 100 | ≤ 100 | CC[C@]1(c2cccc(-c3ccncc3O)c2)C2=C(CC(C)(C)CC2=O)Nc2n[nH]cc21 [Compound 945724] | IC50 [1, 5]: 100 to 1000 nM; IC50 [2, 6]: 1000 to 5000 nM
– | – | CCC1(c2cccc(-c3cncn3C(C)C)c2)C2=C(CC(C)(C)CC2=O)Nc2n[nH]cc21 (stereo not drawn) [Compound 945725] | IC50 [1, 5]: ≤ 100 nM; IC50 [2, 6]: 100 to 1000 nM
1000 to 5000 | > 5000 | CCc1cccc(N(C)c2cccc([C@]3(CC)C4=C(CC(C)(C)CC4=O)Nc4n[nH]cc43)c2)n1 [Compound 945726] | –
– | – | CC[C@]1(c2cccc(-c3cnn(C)c3C)c2)C2=C(CC(C)(C)NC2=O)Nc2n[nH]c(C)c21 [Compound 945727] | IC50 [1, 7]: > 5000 nM; IC50 [2, 8]: > 5000 nM
1000 to 5000 | > 5000 | CC[C@@]1(c2cccc(-c3ccncc3O)c2)C2=C(CC(C)(C)CC2=O)Nc2n[nH]cc21 [Compound 945728] | –
100 to 1000 | 100 to 1000 | CC1(C)CC(=O)C2=C(C1)Nc1n[nH]cc1[C@@]21CCC[C@@H](C#N)C1 [Compound 945906] | –
– | – | CCC1(c2cccc(C(F)(F)F)c2)C2=C(CC(C(C)(C)C)NC2=O)Nc2n[nH]cc21 (stereo not drawn) [Compound 945921] | IC50 [1, 7]: 1000 to 5000 nM; IC50 [2, 8]: > 5000 nM
– | – | CC[C@]1(c2cccc(C(F)(F)F)c2)C2=C(C[C@@H](C(C)(C)C)NC2=O)Nc2n[nH]cc21 [Compound 945922] | IC50 [1, 7]: ≤ 100 nM; IC50 [2, 8]: 100 to 1000 nM
– | – | CCC1(c2cccc(C(F)(F)F)c2)C2=C(CC(C(C)(C)C)NC2=O)Nc2n[nH]cc21 (stereo not drawn) [Compound 945923] | IC50 [1, 7]: > 5000 nM; IC50 [2, 8]: > 5000 nM
100 to 1000 | > 5000 | CCC1(c2cccc(Oc3cncnc3)c2)C2=C(CC(C)(C)CC2=O)Nc2n[nH]cc21 (stereo not drawn) [Compound 945939] | –
≤ 100 | 100 to 1000 | CCC1(c2cccc(Nc3ncccn3)c2)C2=C(CC(C)(C)CC2=O)Nc2n[nH]cc21 (stereo not drawn) [Compound 945943] | –
1000 to 5000 | > 5000 | CCC1(c2cccc(Nc3ncccn3)c2)C2=C(CC(C)(C)CC2=O)Nc2n[nH]cc21 (stereo not drawn) [Compound 945958] | –
≤ 100 | 100 to 1000 | CCC1(c2cccc(-c3ccnc(CCO)c3)c2)C2=C(CC(C)(C)CC2=O)Nc2n[nH]cc21 (stereo not drawn) [Compound 945992] | –
– | – | CCC1(c2cccc(-c3ccnc(C)c3C)c2)C2=C(CC(C)(C)NC2=O)Nc2n[nH]cc21 (stereo not drawn) [Compound 945994] | IC50 [1, 7]: ≤ 100 nM; IC50 [2, 8]: 100 to 1000 nM
≤ 100 | ≤ 100 | CC[C@]1(c2cccc(-c3cc(C)ncc3OC)c2)C2=C(CC(C)(C)CC2=O)Nc2n[nH]cc21 [Compound 945995] | IC50 [1, 5]: 100 to 1000 nM; IC50 [2, 6]: 1000 to 5000 nM
≤ 100 | ≤ 100 | CC[C@]1(c2cccc(-c3ccnc(C)c3OC)c2)C2=C(CC(C)(C)CC2=O)Nc2n[nH]cc21 [Compound 945997] | IC50 [1, 5]: 100 to 1000 nM; IC50 [2, 6]: 1000 to 5000 nM
≤ 100 | ≤ 100 | CCC1(c2cccc(S(=O)(=O)C3COC3)c2)C2=C(CC(C)(C)CC2=O)Nc2n[nH]cc21 (stereo not drawn) [Compound 945998] | –
– | – | CC[C@]1(c2cccc(S(=O)(=O)C3CC3)c2)C2=C(CC(C)(C)NC2=O)Nc2n[nH]cc21 [Compound 945999] | IC50 [1, 7]: ≤ 100 nM; IC50 [2, 8]: ≤ 100 nM

IC50 [1, 3] [nM] | IC50 [2, 4] [nM] | Structure (SMILES) | other results
100 to 1000 | > 5000 | CCC1(c2cccc(S(=O)(=O)C3COC3)c2)C2=C(CC(C)(C)CC2=O)Nc2n[nH]cc21 (stereo not drawn) [Compound 946003] | –
– | – | CCC1(c2cccc(S(=O)(=O)C3CC3)c2)C2=C(CC(C)(C)NC2=O)Nc2n[nH]cc21 (stereo not drawn) [Compound 946004] | IC50 [1, 7]: 100 to 1000 nM; IC50 [2, 8]: > 5000 nM
100 to 1000 | > 5000 | CC[C@@]1(c2ccccc2)C2=C(CC(C)(C)C(O)C2=O)Nc2n[nH]cc21 (stereo partly drawn) [Compound 946056] | –
≤ 100 | 100 to 1000 | CC1(C)CC(=O)C2=C(C1)Nc1n[nH]cc1[C@@]21CO[C@H](c2ccccc2)C1 [Compound 946072] | –
≤ 100 | 100 to 1000 | CC1(C)CC(=O)C2=C(C1)Nc1n[nH]cc1[C@@]21CO[C@@H](c2ccccc2)C1 [Compound 946073] | –
– | – | CC1(C)CC(=O)C2=C(C1)Nc1n[nH]cc1[C@]21CCC[C@H](C#N)C1 [Compound 946078] | IC50 [1, 9]: 1000 to 5000 nM; IC50 [2, 10]: > 5000 nM
– | – | CC1(C)CC(=O)C2=C(C1)Nc1n[nH]cc1[C@]21CCC[C@@H](C#N)C1 [Compound 946080] | IC50 [1, 9]: 1000 to 5000 nM; IC50 [2, 10]: 1000 to 5000 nM
100 to 1000 | > 5000 | CCn1nccc1-c1cccc(C2(CC)C3=C(CC(C)(C)CC3=O)Nc3n[nH]cc32)c1 (stereo not drawn) [Compound 946090] | –
1000 to 5000 | > 5000 | CCC1(c2cccc(-c3ccnn3C(C)C)c2)C2=C(CC(C)(C)CC2=O)Nc2n[nH]cc21 (stereo not drawn) [Compound 946092] | –
≤ 100 | ≤ 100 | CCCn1nccc1-c1cccc(C2(CC)C3=C(CC(C)(C)CC3=O)Nc3n[nH]cc32)c1 (stereo not drawn) [Compound 946093] | IC50 [1, 5]: ≤ 100 nM; IC50 [2, 6]: 100 to 1000 nM
100 to 1000 | 1000 to 5000 | CCCn1nccc1-c1cccc(C2(CC)C3=C(CC(C)(C)CC3=O)Nc3n[nH]cc32)c1 (stereo not drawn) [Compound 946094] | –
≤ 100 | ≤ 100 | CCC1(c2cccc(-c3ccnn3CCC(C)C)c2)C2=C(CC(C)(C)CC2=O)Nc2n[nH]cc21 (stereo not drawn) [Compound 946095] | –
100 to 1000 | > 5000 | CCC1(c2cccc(-c3ccnn3CCC(C)C)c2)C2=C(CC(C)(C)CC2=O)Nc2n[nH]cc21 (stereo not drawn) [Compound 946096] | –
≤ 100 | 100 to 1000 | CCC1(c2cccc(-c3cc(C)nn3C)c2)C2=C(CC(C)(C)CC2=O)Nc2n[nH]cc21 (stereo not drawn) [Compound 946097] | –
1000 to 5000 | > 5000 | CCC1(c2cccc(-c3ccnc(C)c3)c2)C2=C(Nc3n[nH]cc31)C(F)C(C)(C)CC2=O (stereo not drawn) [Compound 946101] | –
1000 to 5000 | > 5000 | CCC1(c2cccc(-c3ccnc(C)c3)c2)C2=C(Nc3n[nH]cc31)C(F)C(C)(C)CC2=O (stereo not drawn) [Compound 946102] | –
100 to 1000 | 1000 to 5000 | CCC1(c2cccc(-c3ccnc(C)c3)c2)C2=C(Nc3n[nH]cc31)C(F)C(C)(C)CC2=O (stereo not drawn) [Compound 946103] | IC50 [1, 5]: > 5000 nM; IC50 [2, 6]: > 5000 nM
≤ 100 | 100 to 1000 | CCC1(c2cccc(-c3ccnc(C)c3)c2)C2=C(Nc3n[nH]cc31)C(F)C(C)(C)CC2=O (stereo not drawn) [Compound 946104] | IC50 [1, 5]: 100 to 1000 nM; IC50 [2, 6]: > 5000 nM
≤ 100 | ≤ 100 | Cc1ccc(S(=O)(=O)N2CCC3(CC2)C2=C(CC(C)(C)CC2=O)Nc2n[nH]cc23)cc1Cl [Compound 947241] | –
≤ 100 | ≤ 100 | CC1(C)CC(=O)C2=C(C1)Nc1n[nH]cc1C21CCN(S(=O)(=O)c2cccc(OC(F)F)c2)CC1 [Compound 947242] | IC50 ([1]; GSK3-A (TR-FRET 1 mM ATP), GMean, IC50, 1 mM ATP, geometric mean): ≤ 100 nM; IC50 ([2]; GSK3-B (TR-FRET 1 mM ATP), GMean, IC50, 1 mM ATP, geometric mean): 100 to 1000 nM

Structure (SMILES) | IC50 [1, 3] [nM] | IC50 [2, 4] [nM] | other results
CC[C@]1(c2cccc(S(=O)(=O)C3CC3)c2)C2=C(CC(C)(C)CC2=O)Nc2n[nH]c(C(F)(F)F)c21 [Compound 945715] | ≤ 100 | ≤ 100 | –
